Consider four compounds from patent publication US10045951B2, “Flaxseed lignan complex and its use thereof” (priority 2007, dated 2018).

The test system of one series is HO-1. In words: HO-1 immunoblotting in pulmonary microvascular endothelial cells (PMVEC). Particulars: 10 μM; 1,2,4,6,8 and 10 hours. The format is cell-based, mouse. As to the method: For mechanistic studies, there is a need to establish whether purified lignans (in appropriate, “pharmacologically achievable” concentrations) have similar effects in cell culture as lignan complex diets have in animals. HO-1 levels were thus evaluated by immunoblotting in primary cultures of pulmonary microvascular endothelial cells (PMVEC) isolated from mouse lungs. PMVEC were incubated with the lignan enterodiole (ED) in micromolar concentrations (10 µM) similar to that seen in mouse plasma levels. Cells were incubated with ED for 1,2,4,6,8 and 10 hours.

The test system of another series is Nrf2. Kind of series: Nuclear Nrf2 levels in PMVEC. It is filed as cell-based, mouse. Particulars: 10 μM. An excerpt: Nrf2 was detected with our own rabbit polyclonal Antibody (Clone MCS-1a).
Series [1] concerns alveolar epithelial cells (A549). In words: H2O2-induced cell death of alveolar epithelial cells (LDH release). The format is cell-based. Particulars: 10, 50, 100, 200, 500 uM; 10 mM H2O2 for 1-6 hours. As to the method: In addition, using the same assay system to detect cell death, LDH release, an evaluation of the efficacy of the lignan enterodiole, ED, to protect alveolar epithelial cells (A549) from oxidant-induced cell death was made. In these experiments, cells were pre-incubated withincreasing concentrations of ED (10, 50, 100, 200, 500 uM) and challenged with hydrogen peroxide (10 mM H2O2) for 1-6 hours. […] (FIG. 20).

The next series deals with ROS generation in PMVEC. Kind of series: ROS generation (H2DCF) by PMVEC in simulated I/R flow chamber. The format is cell-based, mouse. The following applies: 5 μM for 5 h prior to I/R. As to the method:
Mouse pulmonary endothelial cells (PMVEC) were grown on coverslips and placed in a Warner chamber and perfused with culture medium for 24 h at a flow rate of 10 dyn/cm^2. Cells were incubated with the Lignan ED (5 μM) for 5 h prior to I/R loaded with H2DCF to monitor ROS immediately before the experiment. I/R in this chamber is simulated by abrupt cessation of perfusate flow and its reinstatement through the chamber 5 minutes later. The images are in pseudocolor with intensity shown on the side bar.

The next series concerns proteasomal activity. In words: Proteasomal inhibition in GFPu-1 cells (anti-GFP immunoblotting). It is filed as cell-based, human. The following applies: for amount of proteasomal inhibition as compared to Lactacystin and MG 132 / proteasomal inhibition compared to untreated cells (GFP expression): 16 hours; for proteasomal inhibition compared to untreated cells (GFP expression): EL 1 μM to 100 μM. The protocol: FIG. 36: Proteasomal inhibition with EL and ED as compared to known pharmacologic inhibitors Lactacystin and MG 132. GFPu-1 kidney epithelial cells were treated for 16 hours with EL and ED at differing concentrations. Proteasomal inhibition was detected by Western blotting using anti-GFP antibody with increased proteasomal inhibition expressed as accumulation of GFP. Representative Western blots are shown with β actin reference (Top panels). Densitometry was performed with β actin normalization, expressed as fold over untreated control±SEM, n=2-6 (Bottom panel). Dotted line represents control expression of GFP. *p<0.005 vs. untreated, **p<0.01 vs. untreated.
GFP^u-1 cells were used to investigate the impact of one of the flaxseed lignans, enterodiole (ED) on proteasomal activity. GFP^u-1 is an human kidney epithelial (HEK)-derived, stably transfected cell line expressing a short degron (CL1) tagged to green fluorescent protein (GFP) as described […].
Using an in vitro means of quantifying proteasomal inhibition with GFPu-1 cells, differing concentrations of the FS lignans EL and ED were compared with known pharmacologic proteasomal inhibitors MG 132 and Lactacystin, incubated for 16 hours prior to processing. Western blotting was performed on whole […] cell lysates using anti-GFP antibodies to quantify the amount of GFP expressed as a marker of the amount of proteasomal inhibition (FIG. 36, Top panels).

The test system of a further series is LKR. Kind of series: MTS cell proliferation assay with FS lignans: LKR. The format is cell-based. Particulars: 10 μM for 16 hours. The protocol:
(§1) FIG. 37: FS lignans EL and ED, and their precursor SDG, inhibit cell proliferation in tumor cell lines. Tumor cell lines (LKR, TC-1, and LLC) were incubated with 10 μM or 25 μM of SDG, EL, or ED for 16 hours and processed for MTS assay to measure cell proliferation. The % inhibition of cell growth compared to untreated (no lignan) cell lines was calculated. Bars represent means±SEM. n=3 readings per group.
(§2) Cell proliferation was assessed at this time (time 0), and 24 and 48 hours later.

A further series has as its system TC-1. Kind of series: MTS cell proliferation assay with FS lignans: TC-1. It is filed as cell-based. Particulars: 10 μM for 16 hours. As to the method: as §1, §2
For a further series, the system named is LLC. In words: MTS cell proliferation assay with FS lignans: LLC. The format is cell-based. Particulars: 10 μM for 16 hours. The protocol:
as §1, §2

Series [2] can be described thus: Lignan content in murine plasma (LC/MS/MS). The format is in vivo, mice. The following applies: oral, 10 % FS (flaxseed) in diet, FS-fed (10% FS) mouse groups, 4 months post-irradiation, read-out: circulating plasma level. The protocol:
Circulating plasma levels of the flaxseed lignans ED and EL at time of sacrifice (4 months' post-XRT) were determined by liquid chromatography tandem mass spectrometry (LC/MS/MS) using commercially available standards in 95% purity (Chromadex, Inc., Santa Ana, Calif.) shown in FIG. 39. Plasma flaxseed lignan levels were evaluated in 3 randomly selected mice per group (irradiated mice; diet initiated at −3, 0, +2, +4, +6 weeks of radiation exposure).
Detection of flaxseed metabolites in the circulation using analytical methods was used to confirm that mice were feeding on the flaxseed-supplemented diet to reach physiologically relevant levels. Mice were maintained on control (0% FS) or treatment (10% FS) diets given ad libitum for either three weeks prior to XRT and for the entire duration of the experiment (4 months), or started on the day of XRT or 2,4,6 weeks post XRT and continued for 4 months (see scheme on FIG. 38). Plasma evaluation for lignan detection was done at 16 weeks post XRT.

The test system of a further series is PMVEC. Kind of series: tBHQ-induced cell death of PMVEC (LDH release). It is filed as cell-based, mouse. Particulars: pretreatment 50 μM; 10 μM tBHQ. As to the method:
Given the in vivo data hereinabove, showing protection of lungs from oxidative injury after flaxseed feeding, a confirmation of similar protection of cells in vitro was desired. Relatively high doses of the electrophile tert-butylhydroquinone (tBHQ) were used to oxidatively stress the cells. […] However, pretreatment of cells with 50 µM of the lignan Enterolactone (EL) was sufficient to protect cells up to 50% from tert-butylhydroquinone (tBHQ)-induced cell death (FIG. 19).

The next series relates to LKR cells. Kind of series: MTS cell proliferation assay with proteasomal inhibitor. The format is cell-based, mouse. Particulars: one day post incubation. The protocol: FIG. 35: Cancer cell proliferation is inhibited by a known pharmacological proteasome inhibitor. LKR cells were incubated with MG 132, a known pharmacological proteasomal inhibitor and cell proliferation was measured using the MTS assay at one day post incubation. There was a dose dependent decrease in cell proliferation with increasing doses of MG 132.
LKR cells derived from an explant of a pulmonary tumor from an activated K-rasG12D mutant mouse were incubated with differing concentrations of MG 132, a known pharmacological proteasomal inhibitor to assess for cell proliferation using the MTS assay.

The test system of series [3] is streptozotosin-induced Diabetes mellitus. Particulars: SDG-treated animals; cited from earlier work.

Each structure is given as a SMILES string. Where a SMILES comes first, the peptide text is derived from it. The star is where a group is joined. Cbz = O=C(OCc1ccccc1)*

Take `OC[C@H](Cc1cccc(O)c1)[C@H](CO)Cc1cccc(O)c1` [ED, enterodiol]: the HO-1 levels entry with HO-1 is “robust, time-dependent induction”. The “nuclear Nrf2 levels” value in the series on Nrf2 was “time-dependent increase”. For the same compound, the “protection from oxidant-induced cell death (LDH release)” value in series [1] is “significantly protected”. For the same compound, the ROS generation entry in the series on ROS generation in PMVEC is on record as “near complete abrogation”. Also, the “amount of proteasomal inhibition as compared to Lactacystin and MG 132” value in the series with proteasomal activity was “comparable to only Lactacystin, not MG 132”. In addition, in the series with proteasomal activity, the “proteasomal inhibition compared to untreated cells (GFP expression)” value was “significant amount of proteasomal inhibition”. Also, the “GFP levels (proteasomal inhibition)” value in the series on proteasomal activity (Example 15) is given as “increased GFP levels in a dose-dependent fashion”. The “cancer cell proliferation rate (MTS)” value with LKR, with TC-1 and in the series on LLC was “significant decrease” each time. Further, the concentration at 16 weeks post XRT in series [2] lay in the range of 14 to 405 ng/mL.
In the case of `O=C1OC[C@H](Cc2cccc(O)c2)[C@H]1Cc1cccc(O)c1` [EL, enterolactone], the “protection from tBHQ-induced cell death” value in the series with PMVEC is on record as “up to 50%”. The “amount of proteasomal inhibition as compared to Lactacystin and MG 132” value with proteasomal activity is on record as “no significant difference”. Moreover, in the series on proteasomal activity, the “proteasomal inhibition compared to untreated cells (GFP expression)” value was “significant increase”. The “cancer cell proliferation rate (MTS)” value in the series with LKR, in the series with TC-1 and with LLC was “significant decrease” throughout. Moreover, the concentration at 16 weeks post XRT in series [2] fell in the range of 103 to 325 ng/mL.
Turning to `CC(C)C[C@@H](C=O)NC(=O)[C@H](CC(C)C)NC(=O)[C@H](CC(C)C)NC(=O)OCc1ccccc1` [MG 132] (Cbz-Leu-Leu-Leu-aldehyde), in the series with LKR cells, the “cell proliferation inhibition (MTS)” value is reported as “clear dose dependent response”.
`COc1cc(C[C@@H](CO[C@@H]2O[C@H](CO)[C@@H](O)[C@H](O)[C@H]2O)[C@H](CO[C@@H]2O[C@H](CO)[C@@H](O)[C@H](O)[C@H]2O)Cc2ccc(O)c(OC)c2)ccc1O` [SDG, secoisolariciresinol diglucoside]: the “cancer cell proliferation rate (MTS)” value in the series with LKR, with TC-1 and in the series with LLC was “significant decrease” throughout. Also, the diabetes entry in [3] was “prevention of diabetes”. Further, the “serum and pancreatic lipid peroxidation” value in [3] is listed as “decrease”.
